“Also recorded” adds a separate entry of the source. Marks after values point to notes of the source that are not given here.
Tests used:
[1] = test system: bone metabolism in the rat; experiment: Biochemical parameters of bone metabolism (urine, serum) after DHEA and/or EM-800; format: in vivo; settings: DHEA 10 mg, EM-800 75 μg
Source text: Data are expressed as the means±SEM.**: P<0.01 experimental versus respective control.
It is particularly important to indicate that the combination of DHEA and EM-800 exerted unexpected beneficial effects on important biochemical parameters of bone metabolism. […] Moreover, no effect of DHEA could be detected on daily urinary calcium or phosphorus excretion (Luo et al., Endocrinology 138: 4435-4444, 1997). EM-800, decreased the urinary hydroxyproline/creatinine ratio by 48% while, similarly to DHEA, no effect of EM-800 was seen on urinary calcium or phosphorus excretion. EM-800, moreover, had no effect on serum alkaline phosphatase activity, a marker of bone formation while DHEA increased the value of the parameter by about 75% (Luo et al., Endocrinology 138: 4435-4444, 1997).

[2] = test system: ovariectomized female rats; experiment: Prevention of bone loss, body fat, serum cholesterol and ALP, 3-month treatment of OVX rats (Example 5A, experiment 1); format: in vivo, Sprague-Dawley rats; settings: OVX rats, 3 months
Experimental: (§1) Ten to twelve week-old female Sprague-Dawley rats (Crl:CD(SD)Br) (Charles River Laboratory, St-Constant, Canada) weighing approximately 220-270 g at start of treatment were used. The animals were acclimatized to the environmental conditions (temperature: 22±3° C.; humidity: 50±20%; 12-h light-12-h dark cycles, lights on at 07:15 h) for at least 1 week before starting the experiments. The animals were housed individually and were allowed free access to tap water and a pelleted certified rodent feed (Lab Diet 5002, Ralston Purina, St-Louis, Mo.). Experiments were conducted in an animal facility approved by the Canadian Council on Animal Care (CCAC) and the Association for Assessment and Accreditation of Laboratory Animal Care (AAALAC) in accordance with the CCAC Guide for Care and Use of Experimental Animals.
On day 1 of the study, the animals of the appropriate groups were bilaterally ovariectomized (OVX) under isoflurane anesthesia. […] Treatments were initiated on day 2 of the study and were performed once daily during 3 months.
(§2) After 3 months (experiment 1) or 26 weeks (experiment 2) of treatment, individual rats under Isoflurane anesthesia had their whole body skeleton and lumbar spine scanned using dual energy x-ray absorptiometry (DEXA; QDR 4500A, Hologic, Waltham, Mass.) and a Regional High Resolution Scan software. The bone mineral density (BMD) of the lumbar spine (vertebrae L2 to L4) and the total body composition (fat percentage) were determined.
(§3) After 3 months (experiment 1) or 26 weeks (experiment 2) of treatment, blood samples were collected at the jugular vein from overnight fasted animals (under Isoflurane anesthesia). Samples were processed for serum preparation and frozen at −80° C. until assay. Serum cholesterol levels and alkaline phospatase activity (ALP) were determined using the Boehringer Mannheim Diagnostic Hitachi 911 Analyzer (Boehringer Mannheim Diagnostic Laboratory Systems).

[3] = test system: bone metabolism in the rat; settings: cited from earlier work
[4] = test system: OVX rats having established osteopenia; experiment: Treatment of OVX rats having established osteopenia, 26 weeks (Example 5B): BMD, total body fat; format: in vivo, Sprague-Dawley rats; settings: treatment started 10 weeks after OVX, 26 weeks daily
Experimental: as §1, with “Height” for “Ten”, “nine month-old” for “twelve week-old”, “Canada)” for “Canada) weighing approximately 220-270 g at start of treatment”, “used in this experiment.” for “used.”, “prior to” for “before starting”, “ovariectomy. Animals were bilaterally ovariectomized (OVX) under isoflurane anesthesia. Twenty animals were kept intact as control.” for “experiments.”
Treatments were initiated 10 weeks after the ovariectomy and were performed once daily during 26 weeks. Animals not receiving a test article were treated with the appropriate vehicle alone during the same period.
Prior to the OVX, prior to the first day treatment (10 weeks after OVX) and after 26 weeks of treatment, individual rats under Isoflurane anesthesia had their whole body skeleton, lumbar spine and right femur scanned using dual energy x-ray absorptiometry (DEXA; QDR 4500A, Hologic, Waltham, Mass.) and a Regional High Resolution Scan software. The bone mineral density (BMD) of the lumbar spine (vertebrae L2 to L4), femur and the total body composition (fat percentage) were determined.

[5] = test system: ZR-75-1 breast tumor xenografts; experiment: Growth of human ZR-75-1 breast tumor xenografts in OVX nude mice supplemented with estrone (DHEA, EM-800; Example 1); settings: OVX + E1; for Inhibition of E1-stimulated ZR-75-1 tumor size / Inhibition of terminal tumor weight / Average tumor weight: 9.5 months
[6] = test system: uterus and vagina of ovariectomized nude mice; experiment: Uterine, vaginal and body weight in the xenograft-bearing OVX nude mice (Example 1)
[7] = test system: ovariectomized female rats; experiment: Prevention of bone loss, body fat, serum cholesterol and ALP, 26-week treatment of OVX rats (Example 5A, experiment 2); format: in vivo, Sprague-Dawley rats; settings: 26 weeks
Experimental: as §1
On day 1 of the study, the animals of the appropriate groups were bilaterally OVX under isoflurane anesthesia. Tested compounds were administered as suspension in 0.4% methylcellulose by oral gavage. Treatments were initiated on day 2 of the study and were performed once daily during 26 weeks. In both experiments, animals not receiving a test article were treated with the appropriate vehicle alone during the same period.
as §2, §3

[8] = test system: uterus and vagina of ovariectomized mice; experiment: Uterine and vaginal weight in ovariectomized mice treated or not with estrone (9 days oral); format: in vivo, BALB/c mice; settings: for Inhibition of estrone-stimulated uterine weight / Inhibition of estrone-stimulated vaginal weight: 9 days, OVX mice + E1
Experimental: (St-Constant, Quebec, Canada) and housed 5 per cage in a temperature (23±1° C.)—and light (12 h light/day, lights on at 7:15)—controlled environment. The mice were fed rodent chow and tap water ad libitum. […] Ten mice were kept intact as controls. […] Compounds were dissolved in ethanol (4% final concentration) and administered in 0.4% methylcellulose. Mice in the intact and OVX control groups received the vehicle alone (4% ETOH-0.4% methylcellulose) during the 9-day period. The animals were killed by exsanguination at the abdominal aorta on the 11th morning following ovariectomy.

MCF-7 cells = experiment: Proliferation of human breast cancer MCF-7 cells (DNA content); format: cell-based; settings: MCF-7, Experiment 1
Experimental: The MCF-7 human breast adenocarcinoma cell line was derived from the pleural effusion of a patient. MCF-7 cells were used between passages 148 and 165 and subcultured weekly
Cells in their late logarithmic growth phase were harvested with 0.1% pancreatin (Sigma) and resuspended in the appropriate medium containing 50 ng bovine insulin/ml and 5% (v/v) FBS treated twice with dextran-coated charcoal to remove endogenous steroids. Cells were plated in 24-well Falcon plastic culture plates (2 cm^2/well) at the indicated density and allowed to adhere to the surface of the plates for 72 h. Thereafter, medium was replaced with fresh medium containing the indicated concentrations of compounds diluted from 1000×stock solutions in 99% redistilled ethanol in the presence or absence of E2. Control cells received only the ethanolic vehicle (0.1% EtOH,v/v). Cells were incubated for the specified time intervals with medium changes at 2-or 3-day intervals. Cell number was determined by measurement of DNA content.
Dose-response curves as well IC50 values were calculated using a weighted iterative nonlinear least-squares regression. All results are expressed as means±SEM.

[9] = E2 1 mg/kg, EM-652.HCl 2.5 mg/kg, DHEA 80 mg/kg
[10] = DHEA 0.3 mg (alone or with EM-800 15 μg)
[11] = DHEA 1.0 mg (alone or with EM-800 15 μg)
[12] = DHEA 3.0 mg (alone or with EM-800 15 μg)
[13] = OVX rats, Premarin 0.25 mg/kg, SERMs 2.5 mg/kg oral
[14] = OVX + ERA-923 3 μg (no estrone)
[15] = OVX + ERA-923 30 μg (no estrone)
[16] = alone, absence of estrone, both doses used

## C[C@]12CC[C@H](O)CC1=CC[C@@H]1[C@@H]2CC[C@]2(C)C(=O)CC[C@@H]12 [DHEA, dehydroepiandrosterone, reference compound]
[1]
  Serum tALP: 198.38 ± 30.76* IU/L
  Urine HP/Cr: 14.02 ± 1.59 μmol/mmol
  Urine calcium: 25.87 ± 3.54 μmol/24h/100g
  Urine phosphorus: 151.41 ± 14.57 μmol/24h/100g
[2]
  Serum ALP: 224±18 IU/L
  Serum cholesterol: 1.59 ± 0.10 mmol/L
  Total fat: 17.3 ± 1.5 %
[2]; [9]
  Lumbar spine BMD: 0.2321 ± 0.0034 g/cm^2
  Lumbar spine, Prevention of Bone Loss: 43%
[3]
  Decrease of urinary hydroxyproline/creatinine ratio: did not affect; also recorded: did not show any effect
  Effect on daily urinary calcium or phosphorus excretion: no effect
  Increase of serum alkaline phosphatase activity: about 75%
[4]
  Femoral BMD: completely prevented the further decrease
  Lumbar spine BMD: completely prevented the further decrease
  Total body fat: prevented the 17% increase
[5]; DHEA 0.3 mg percutaneous
  Inhibition of E1-stimulated ZR-75-1 tumor size: 50.4%
[5]; DHEA 0.3 mg
  Inhibition of terminal tumor weight: 67%
[5]; DHEA 1.0 mg percutaneous
  Inhibition of E1-stimulated ZR-75-1 tumor size: 76.8%
[5]; DHEA 1.0 mg
  Inhibition of terminal tumor weight: 82%
[5]; DHEA 3.0 mg percutaneous
  Inhibition of E1-stimulated ZR-75-1 tumor size: 80.0%
[5]; DHEA 3.0 mg
  Inhibition of terminal tumor weight: 85%
[5]; [10]
  Category of response: Partial: 0 (0) Number and (%)
  Average tumor weight: 0.37 ± 0.12 g
[5]; [11]
  Category of response: Partial: 0 (0) Number and (%)
  Average tumor weight: 0.20 ± 0.06 g
[5]; [12]
  Category of response: Partial: 0 (0) Number and (%)
  Average tumor weight: 0.17 ± 0.06 g
[6]; 9.5 months
  Effect on body weight adjusted for tumor weight: No significant effect
[6]; addition of DHEA to estrone
  Effect on estrone-stimulated vaginal weight: had no significant effect
[6]; highest dose of DHEA used
  Inhibition of the stimulatory effect of estrone on uterine weight: 26%

## Cc1c(-c2ccc(O)cc2)n(Cc2ccc(OCCN3CCCCC3)cc2)c2ccc(O)cc12 [ERA-923]
[7]; OVX rats
  Reversal of the fat increase induced by estrogen deficiency: 75%
  Serum ALP: 85 ± 6 IU
  Serum cholesterol: 1.15 ± 0.05 mmol/L
  Total fat: 28.0 ± 1.8 %
[7]; [13]
  Lumbar spine BMD: 0.2252 ± 0.0058 g/cm^2
  Lumbar spine, Prevention of Bone Loss: 49%
[7]; alone or in combination with Premarin
  OVX-induced increase on serum cholesterol levels: completely prevented
[8]; 1 μg daily oral
  Inhibition of estrone-stimulated uterine weight: 12%
[8]; 3 μg daily oral
  Inhibition of estrone-stimulated uterine weight: 47%
  Inhibition of estrone-stimulated vaginal weight: 16%
[8]; 10 μg daily oral
  Inhibition of estrone-stimulated uterine weight: 74%
  Inhibition of estrone-stimulated vaginal weight: 56%
[8]; 30 μg daily oral
  Inhibition of estrone-stimulated uterine weight: 94%
  Inhibition of estrone-stimulated vaginal weight: 93%
[8]; OVX + E1 + ERA-923 1 μg
  Uterine weight: 105.5 ± 6.1 mg
  Vaginal weight: 54.2 ± 3.0 mg
[8]; OVX + E1 + ERA-923 3 μg
  Uterine weight: 69.7 ± 4.4 mg
  Vaginal weight: 47.2 ± 1.6 mg
[8]; OVX + E1 + ERA-923 10 μg
  Uterine weight: 42.1 ± 2.7 mg
  Vaginal weight: 31.1 ± 2.3 mg
[8]; OVX + E1 + ERA-923 30 μg
  Uterine weight: 21.7 ± 1.7 mg
  Vaginal weight: 16.7 ± 1.8 mg
[8]; [14]
  Uterine weight: 18.3 ± 1.2 mg
  Vaginal weight: 14.1 ± 1.2 mg
[8]; [15]
  Uterine weight: 17.7 ± 1.6 mg
  Vaginal weight: 15.3 ± 2.0 mg
[8]; [16]
  Stimulatory effect on uterine weight: no significant stimulatory effect
  Stimulatory effect on vaginal weight: no significant stimulatory effect
MCF-7 cells; Homo sapiens, MCF7, read-out: Inhibition of 1nM E2 stimulation of DNA by tested compounds IC50
  IC50: 3.68 nM
MCF-7 cells
  Maximal stimulation of DNA by tested compounds: N.S.

Source: US20030040510A1, “Selective estrogen receptor modulators in combination with estrogens” (Endorecherche, Inc., priority 2000, published 2003)
